Columns and labels:
NK3 receptors = biological target: T1, NK3 receptors (Homo sapiens, UniProt P29371); experiment: Calcium ion fluidity (FLIPR) in cells with stable expression of NK3 receptors; type: cell-based; conditions: calcium signal, antagonist mode, read-out: NK3R IC50 (nM) FLIPR
T1 construct: expressed in transfected cells
T1 sequence (P29371 1-465): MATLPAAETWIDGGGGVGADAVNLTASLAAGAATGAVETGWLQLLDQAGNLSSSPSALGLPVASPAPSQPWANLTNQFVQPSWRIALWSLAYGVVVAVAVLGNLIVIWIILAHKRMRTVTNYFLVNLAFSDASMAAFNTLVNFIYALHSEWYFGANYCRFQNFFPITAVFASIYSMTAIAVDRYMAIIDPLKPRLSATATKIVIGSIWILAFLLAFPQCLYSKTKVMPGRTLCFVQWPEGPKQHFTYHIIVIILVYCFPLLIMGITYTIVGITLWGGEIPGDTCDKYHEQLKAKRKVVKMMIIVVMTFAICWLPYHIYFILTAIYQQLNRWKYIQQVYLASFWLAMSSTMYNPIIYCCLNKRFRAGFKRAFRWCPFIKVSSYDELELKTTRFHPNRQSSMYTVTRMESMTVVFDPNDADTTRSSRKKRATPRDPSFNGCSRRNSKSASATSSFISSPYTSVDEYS

[1] = test system: Senktide-induced bilateral ovariectomy rats; experiment: Tail skin temperature in a Senktide-induced bilateral ovariectomy rat model; type: in vivo; conditions: OVX SD rats, oral 30 mg/kg, 30 min before s.c. Senktide, tail skin temperature over 75 min
Text: Pharmacodynamic Study of the Test Compounds on Tail Skin Temperature in a Senktide-Induced Bilateral Ovariectomy Rat Model
To evaluate the effect of the test compounds on tail skin temperature in Senktide-induced bilateral ovariectomy rats.
2.3. Experimental Animals • Ten-Week-old female bilateral ovariectomy SD rats were purchased from Beijing Vital River Laboratory Animal Technology Co., Ltd. The animals were housed in a SPF grade animal facility with 5 SD rats per cage. The cages, bedding, feed and water were disinfected at high temperatures before use. All animals had free access to food and water.
Ten-week-old female SD rats were subjected to bilateral ovariectomy and recovered for two weeks, and then randomly divided into negative control group, model group and drug administration group (8 rats per group), based on body weight. The probe was attached to the dorsal surface of the rat tail with medical tape, 1-2 cm away from the tailhead of the rat.
The vehicle was administered orally to the negative control group and the model group, and different test compounds were administered orally to each drug administration group at a dose of 30 mg/kg and a volume of 10 mL/kg.
Thirty minutes after the oral administration of the vehicle or test compound, the negative control group was injected subcutaneously with normal saline (at a volume of 5 mL/kg); the model group and each drug administration group were injected subcutaneously with 0.2 mg/mL of Senktide (at a volume of 5 mL/kg) to induce the hot flashes-like symptom.
The change in tail skin temperature (ΔTST) at each time point relative to time point 0 was calculated, the ΔTST-time curve of the change in tail skin temperature was plotted, and the area under curve (AUCΔTST) was calculated. ΔTST=TSTn−TST0, TST0 is the tail skin temperature at 0 minute before the subcutaneous injection of normal saline or Senktide; TSTn is the tail skin temperature at the n minute after the subcutaneous injection.
AUCΔTST=Σ(ΔTSTn+ΔTSTn+5)*5/2

| SMILES | IC50 (NK3 receptors) | AUCΔTST [1] |
| --- | --- | --- |
| [2H]c1cc(C(=O)N2CCn3c(-c4nc(Cl)ns4)nnc3[C@H]2C)ccc1F [Example 56, (R)-(3-(3-Chloro-1,2,4-thiadiazol-5-yl)-8-methyl-5,6-dihydro-[1,2,4]triazolo[4,3-a]pyrazin-7(8H)-yl)(4-fluorophenyl-3-d)methanone] | 155 nM | 53.8 ± 19.8 °C · min |
| C[C@@H]1c2nnc(-c3nc4cnc(Cl)cc4s3)n2CCN1C(=O)c1ccc(F)cc1 [Example 37, (R)-(3-(6-Chlorothiazolo[4,5-c]pyridin-2-yl)-8-methyl-5,6-dihydro-[1,2,4]triazolo[4,3-a]pyrazin-7(8H)-yl)(4-fluorophenyl)methanone] | 48.9 nM | – |
